Results taken from PubChem BioAssay (NCI).
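All cell lines were grown in 96-well plates and treated with compound for 48 hours. TGI: concentration producing complete growth inhibition.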

Assays:
Assay in all cases: inhibition of tumour cell growth, NCI panel, 48 h
[1] = tested on: SNB-19 CNS
[2] = tested on: A549 NSCLC
[3] = tested on: IGROV1 ovarian
[4] = tested on: SK-MEL-2 melanoma
[5] = tested on: MALME-3M melanoma
[6] = tested on: KM12 colon
[7] = tested on: TK-10 renal
[8] = tested on: NCI-H522 lung
[9] = tested on: OVCAR-5 ovarian
[10] = tested on: NCI-H23 lung
[11] = tested on: HCC-2998 colon
[12] = tested on: LOX IMVI melanoma
[13] = tested on: ACHN renal

| SMILES | TGI [1] [µM] | TGI [2] [µM] | TGI [3] [µM] | TGI [4] [µM] | TGI [5] [µM] | TGI [6] [µM] | TGI [7] [µM] | TGI [8] [µM] | TGI [9] [µM] | TGI [10] [µM] | TGI [11] [µM] | TGI [12] [µM] | TGI [13] [µM] |
| --- | --- | --- | --- | --- | --- | --- | --- | --- | --- | --- | --- | --- | --- |
| O=C1C(Cl)N(c2c(Cl)cccc2Cl)C1c1c[nH]c2ccccc12 (configuration not stated) | > 100 | > 100 | > 100 | > 100 | > 100 | > 100 | > 100 | > 100 | > 100 | > 100 | – | – | – |
| O=[N+]([O-])c1ccc(SN=S=NSc2cccc(SN=S=NSc3ccc([N+](=O)[O-])cc3)c2)cc1 | > 100 | > 100 | > 100 | 34.1 | > 100 | > 100 | – | 34.3 | 74.3 | – | > 100 | 35.5 | > 100 |
| CSc1ncnc2c1cnn2Cc1cnnn1COCC(O)CO (configuration not stated) | > 100 | > 100 | > 100 | > 100 | – | > 100 | > 100 | 29 | > 100 | > 100 | > 100 | > 100 | > 100 |
| C/C(=C/C(=O)Nc1ccccc1)Nc1onc(C)c1C | > 100 | > 100 | > 100 | > 100 | > 100 | > 100 | – | > 100 | > 100 | > 100 | > 100 | > 100 | – |
| Brc1ccc(C2C3CSc4ccccc4C3=NN2c2ccccc2)cc1 (configuration not stated) | > 100 | > 100 | > 100 | > 100 | > 100 | > 100 | > 100 | – | – | > 100 | – | > 100 | – |
| O=NN1C(c2ccccc2)CNC(=O)CC1c1ccccc1 (configuration not stated) | > 93.2 | > 100 | > 100 | > 80 | > 100 | > 100 | – | 46.8 | > 100 | 97.9 | > 100 | > 100 | – |
| CSc1ncnc2c1cnn2Cc1cn(COCCO)nn1 | > 100 | > 100 | > 100 | > 100 | > 100 | > 100 | > 100 | – | > 100 | > 100 | > 100 | > 100 | > 100 |
| O=C1OC(c2ccccc2)=NC1c1ccccc1 (configuration not stated) | > 100 | > 100 | > 100 | – | – | > 100 | > 100 | > 100 | > 100 | > 100 | > 100 | > 100 | > 100 |
| CN(C)CCNc1ccc2ncn3c4ccccc4c(=O)c1c23 | 47.5 | 5.79 | 11.9 | 10.1 | 10.2 | 13.3 | 46.7 | 5.41 | 5.35 | 14.5 | – | 2.92 | 10.5 |
| C1CNOCCCONCCCNOCCCONC1 | > 100 | > 100 | > 100 | > 100 | 99.2 | > 100 | 84.5 | > 100 | > 100 | > 100 | – | > 100 | > 100 |
| N#C/C(=C\c1ccncc1)c1csc2ccccc12 | 69.6 | > 100 | 97.4 | 42.2 | > 96.2 | 37.8 | – | 41.9 | > 89.6 | > 79.8 | 35.8 | 47.9 | – |
| S=c1sc2c(s1)SC(c1ccccc1)CS2 (configuration not stated) | > 100 | > 100 | > 100 | > 100 | > 100 | > 100 | – | > 100 | > 100 | > 100 | > 100 | > 100 | – |
| O=C(NN1C(=O)C(Cl)C1c1ccccc1O)c1ccccc1O (configuration not stated) | 57.9 | > 100 | > 100 | > 100 | > 100 | > 100 | > 100 | > 100 | – | > 100 | – | – | – |
| O=[N+]([O-])C(=C/c1ccccc1)/C(=C\c1ccccc1)[N+](=O)[O-] | 33.4 | 78.8 | 33.4 | 49.1 | – | 29 | 29.6 | – | 46.6 | 31.1 | 36 | 29.1 | 30.6 |
| Cc1c(O)c(=O)ccn1CCN | > 100 | > 100 | > 100 | > 100 | > 100 | > 100 | > 100 | > 100 | > 100 | > 100 | > 100 | > 100 | > 100 |
| NS(=O)(=O)c1ccc(NC(=O)N/N=C/c2ccccc2O)cc1 | > 100 | > 100 | > 100 | > 100 | > 100 | > 100 | > 100 | > 100 | > 100 | > 100 | > 100 | > 100 | > 100 |
| C#CC[C@@H]1C(=O)N(Cc2ccc(OC)cc2)[C@@H](C(C)C)C(=O)N1Cc1ccc(OC)cc1 | > 100 | > 100 | > 100 | 55.1 | > 100 | > 100 | > 100 | 99.5 | > 100 | > 100 | > 100 | > 100 | > 100 |
